Reference: patent US7671084B2 (Wyeth, priority 2004, dated 2010)

Experiments:
[1] = target: T1, human ERβ (Homo sapiens, UniProt Q92731); test: Competition with [3H]-17β-estradiol for binding to ERβ; details: ligand binding domain of human ERβ in E. coli crude lysate, 2 nM [3H]-17β-estradiol, 5-15 hours at room temperature
T1 construct: made in house; host or cells: E. coli (crude lysate)
Protocol: Representative examples of the invention were evaluated for their ability to compete with 17β-estradiol for both ERα and ERβ. This test procedure provides the methodology for one to determine whether a particular compound binds to the estrogen receptor (and is therefore “estrogenic”) and whether there is selectivity for ERα or ERβ. […] 17β-estradiol is included as a standard reference for comparison. The procedure used is briefly described below. A crude lysate of E. coli expressing the estrogen receptor ligand binding domains (D, E, & F) of human ERα or ERβ was prepared. Both receptors and compounds were diluted in 1× Dulbecco's PBS (DPBS) supplemented with 1 mM EDTA. Using a high binding masked microtiter plate, 100 uL of receptor (1 uG/well) was combined with 2 nm [^3H]-17β-estradiol and various concentrations of compound. After between 5 and 15 hours at room temperature, the plates were washed with DPBS/1 mM EDTA and bound radioactivity determined by liquid scintillation counting. The IC50 is defined as the concentration of compound that decreases total 17β-estradiol binding by 50%.

[2] = target: T2, human ERα (Homo sapiens, UniProt P03372); test: Competition with [3H]-17β-estradiol for binding to ERα; details: ligand binding domain of human ERα in E. coli crude lysate, 2 nM [3H]-17β-estradiol, 5-15 hours at room temperature; read-out: ERα (nM) IC50
T2 construct: made in house; host or cells: E. coli (crude lysate)
T2 sequence (P03372 311-547 limits assumed): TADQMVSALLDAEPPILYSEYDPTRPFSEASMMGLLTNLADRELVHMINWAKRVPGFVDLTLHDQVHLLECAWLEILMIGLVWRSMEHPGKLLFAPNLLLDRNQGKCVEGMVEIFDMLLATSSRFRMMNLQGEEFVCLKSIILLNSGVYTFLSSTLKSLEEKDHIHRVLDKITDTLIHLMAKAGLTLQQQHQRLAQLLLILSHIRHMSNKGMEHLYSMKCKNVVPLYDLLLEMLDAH
Protocol: Representative examples of the invention were evaluated for their ability to compete with 17β-estradiol for both ERα and ERβ. This test procedure provides the methodology for one to determine whether a particular compound binds to the estrogen receptor (and is therefore “estrogenic”) and whether there is selectivity for ERα or ERβ. The values are shown in the Table infra and are reported as IC50s. 17β-estradiol is included as a standard reference for comparison. The procedure used is briefly described below. A crude lysate of E. coli expressing the estrogen receptor ligand binding domains (D, E, & F) of human ERα or ERβ was prepared. Both receptors and compounds were diluted in 1× Dulbecco's PBS (DPBS) supplemented with 1 mM EDTA. Using a high binding masked microtiter plate, 100 uL of receptor (1 uG/well) was combined with 2 nm [^3H]-17β-estradiol and various concentrations of compound. After between 5 and 15 hours at room temperature, the plates were washed with DPBS/1 mM EDTA and bound radioactivity determined by liquid scintillation counting. The IC50 is defined as the concentration of compound that decreases total 17β-estradiol binding by 50%.

T1 sequence (Q92731 264-498 limits assumed): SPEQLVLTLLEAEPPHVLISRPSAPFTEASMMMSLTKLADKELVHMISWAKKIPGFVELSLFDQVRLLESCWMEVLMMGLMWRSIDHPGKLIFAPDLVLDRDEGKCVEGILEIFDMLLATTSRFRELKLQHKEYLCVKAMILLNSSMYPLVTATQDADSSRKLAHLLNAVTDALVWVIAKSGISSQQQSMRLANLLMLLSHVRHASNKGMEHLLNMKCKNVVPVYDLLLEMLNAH

Work on `Oc1ccc2c(c1)COc1c-2cc2ccc(O)cc2c1-c1ccoc1` [Example 47, 7-(3-Furyl)-5H-dibenzo[c,g]chromene-3,9-diol] yielded an IC50 [1] of 2 nM, an IC50 [2] of 76 nM and a melting point of 216 to 218 °C.

With `Oc1ccc2c(c1)COc1c-2cc2ccc(O)cc2c1-c1ccccn1` [Example 54, 7-(2-Pyridyl)-5H-dibenzo[c,g]chromene-3,9-diol] the IC50 [1] was 108 nM, the IC50 [2] was greater than 5000 nM and the melting point was greater than 220 °C.

With `N#Cc1ccc(-c2c3c(cc4ccc(O)cc24)-c2ccc(O)cc2CO3)cc1` [Example 40, 7-(4-Cyanophenyl)-5H-dibenzo[c,g]chromene-3,9-diol] the IC50 [1] was 9.2 nM, the IC50 [2] was 162 nM and the melting point was greater than 250 °C.

`Oc1ccc2c(c1)COc1c-2cc2ccc(O)cc2c1-c1ccc(F)c(F)c1` [Example 36, 7-(3,4-Difluorophenyl)-5H-dibenzo[c,g]chromene-3,9-diol] showed an IC50 [1] of 6.2 nM, an IC50 [2] of 206 nM and a melting point of 235 to 237 °C.

Compound `Oc1ccc2c(c1)COc1c-2cc2ccc(O)cc2c1-c1cccc(C(F)(F)F)c1` [Example 43, 7-(3-Trifluoromethylphenyl)-5H-dibenzo[c,g]chromene-3,9-diol] has an IC50 [1] of 10 nM, an IC50 [2] of 263 nM and a melting point of 228 to 231 °C.

For `Oc1ccc2c(c1)COc1c-2cc2ccc(O)cc2c1-c1cc(F)cc(F)c1` [Example 44, 7-(3,5-Difluorophenyl)-5H-dibenzo[c,g]chromene-3,9-diol], the IC50 [1] was 10 nM, the IC50 [2] was 70 nM and the melting point was 238 to 240 °C.

`Oc1ccc2c(c1)COc1c-2cc2ccc(O)cc2c1-c1cc(Cl)cc(Cl)c1` [Example 45, 7-(3,5-Dichlorophenyl)-5H-dibenzo[c,g]chromene-3,9-diol] gave an IC50 [1] of 34 nM, an IC50 [2] of 151 nM and a melting point of 252 to 255 °C.

For `Oc1ccc2c(c1)COc1c-2cc2ccc(O)cc2c1-c1ccccc1F` [Example 38, 7-(2-Fluorophenyl)-5H-dibenzo[c,g]chromene-3,9-diol], the IC50 [1] was 1.4 nM, the IC50 [2] was 73 nM and the melting point was 240 to 242 °C.

In the case of `Cc1ccc(-c2c3c(cc4ccc(O)cc24)-c2ccc(O)cc2CO3)cc1C` [Example 39, 7-(3,4-Dimethylphenyl)-5H-dibenzo[c,g]chromene-3,9-diol], the IC50 [1] is reported as 22 nM, the IC50 [2] is reported as 608 nM and the melting point is reported as 218 to 221 °C.

For `Cc1ccccc1-c1c2c(cc3ccc(O)cc13)-c1ccc(O)cc1CO2` [Example 24, 7-(2-Tolyl)-5H-dibenzo[c,g]chromene-3,9-diol], the IC50 [1] was 11 nM, the IC50 [2] was 487 nM and the melting point was 193 to 196 °C.

`Oc1ccc2c(c1)COc1c-2cc2ccc(O)cc2c1-c1ccccc1Cl` [Example 35, 7-(2-Chlorophenyl)-5H-dibenzo[c,g]chromene-3,9-diol] showed an IC50 [1] of 9.7 nM, an IC50 [2] of 26 nM and a melting point of 220 to 222 °C.

For `Oc1ccc2c(c1)COc1cc3c(Cl)c(O)ccc3cc1-2` [Example 6, 8-Chloro-5H-dibenzo[c,g]chromene-3,9-diol], the IC50 [1] was 0.53 nM, the IC50 [2] was 21 nM and the melting point was 212 to 214 °C.

With `CC(C)(C)c1ccc(-c2c3c(cc4ccc(O)cc24)-c2ccc(O)cc2CO3)cc1` [Example 60, 7-(4-tert-Butylphenyl)-5H-dibenzo[c,g]chromene-3,9-diol] the IC50 [1] was 320 nM, the IC50 [2] was 3480 nM and the melting point was 162 to 165 °C.

`Oc1ccc2c(c1)COc1c-2cc2ccc(O)cc2c1-c1ccc(OC(F)(F)F)cc1` [Example 59, 7-(4-Trifluoromethoxyphenyl)-5H-dibenzo[c,g]chromene-3,9-diol] showed an IC50 [1] of 34 nM, an IC50 [2] of 1220 nM and a melting point of 245 to 248 °C.

For `CSc1ccc(-c2c3c(cc4ccc(O)cc24)-c2ccc(O)cc2CO3)cc1` [Example 56, 7-(4-Methylthiophenyl)-5H-dibenzo[c,g]chromene-3,9-diol], the IC50 [1] was 142 nM, the IC50 [2] was 804 nM and the melting point was 195 to 198 °C.

Compound `Cc1cccc(-c2c3c(cc4ccc(O)cc24)-c2ccc(O)cc2CO3)c1` [Example 25, 7-(3-Tolyl)-5H-dibenzo[c,g]chromene-3,9-diol] has an IC50 [1] of 4.2 nM, an IC50 [2] of 117 nM and a melting point of 219 to 222 °C.

For `Oc1ccc2c(c1)COc1cc3cc(O)ccc3cc1-2` [Example 4, 5H-Dibenzo[c,g]chromene-3,9-diol], the IC50 [1] was 7.9 nM, the IC50 [2] was 63 nM and the melting point was 231 to 233 °C.

With `COc1ccc(-c2c3c(cc4ccc(O)cc24)-c2ccc(O)cc2CO3)cc1OC` [Example 42, 7-(3,4-Dimethoxyphenyl)-5H-dibenzo[c,g]chromene-3,9-diol] the IC50 [1] was 22 nM, the IC50 [2] was 1820 nM and the melting point was 245 to 248 °C.

For `Oc1ccc2c(c1)COc1c-2cc2ccc(O)cc2c1-c1ccc(F)cc1` [Example 29, 7-(4-Fluorophenyl)-5H-dibenzo[c,g]chromene-3,9-diol], the IC50 [1] was 6.4 nM, the IC50 [2] was 298 nM and the melting point was 229 to 232 °C.

`Oc1ccc2c(c1)COc1c-2cc2ccc(O)cc2c1-c1cccs1` [Example 30, 7-Thien-2-yl-5H-dibenzo[c,g]chromene-3,9-diol] gave an IC50 [1] of 1.4 nM, an IC50 [2] of 75 nM and a melting point of 233 to 236 °C.
